Measured values published in US11590117B2, “Treatment of a hematologic malignancy with 2-(4-chlorophenyl)-n-((2-(2,6-dioxopiperidin-3-yl)-1-oxoisoindolin-5-yl)methyl)-2,2-difluoroacetamide” (priority 2016, dated 2023).

How the values were obtained:
[1] = tested on: Chronic Lymphocytic Leukemia patient samples; experiment: CellTiter-Glo (CTG) cell proliferation assay, 72 hours; assay type: cell-based; conditions: Homo sapiens, Chronic Lymphocytic Leukemia patient samples (n = 3)
Experimental: Table, Table 2 and Table 3. Human normal donor PBMCs and chronic lymphoid leukemia (CLL) patient blasts were obtained from AllCells, LLC (Alameda, Calif.).
Preparation of Solutions of Test Article: Compounds were plated into black 384-well plates (Corning Inc.) to a final DMSO volume of 0.1% assuming a maximal volume of 50 μL. A 10-point dose response starting at 10 μM with a 1:3 dilution was printed in duplicate by acoustic dispense using the EDC ATS-100 platform.
Cell Proliferation Assays: The effect of Compound 1 on the proliferation/viability of the hematological cell lines (Table 1 Table, Table 2 and Table 3), THLE-2, or PBMCs was assessed after 72 hours incubation using CTG (Promega), according to manufacturer's instructions. Hematological cell lines were dispensed into compound plates by a Multidrop™ Combi Reagent Dispenser (Thermo Scientific, Waltham, Mass.) at a concentration of 0.1 to 0.3×10^6 cells per mL in a 50 μL total volume. THLE-2 cells were seeded out at 1000 cells per well in 50 μL volume and incubated for 72 hours. At 72 hours, 25 μL per well of CTG was dispensed by a Multidrop™ Combi Reagent Dispenser and adenosine triphosphate (ATP) release by viable cells was measured as relative luminescence units after 30 minutes using the Envision platform.

selected AML cell lines = experiment: Annexin V/7-AAD flow cytometry apoptosis assay, panel of selected AML cell lines; assay type: cell-based, human; conditions: after 24 and 48 hours, in 4 out of the 5 cell lines evaluated
Experimental: Cell Apoptosis Assays: The ability of Compound 1 to induce apoptosis was assessed in selected AML cell lines and healthy PBMCs at the time points and compound concentrations indicated. For Annexin V/7-AAD readout by flow cytometry, AML cell lines were plated into flat bottom 96-well plates (BD Falcon) at a seeding density of 0.1 to 0.3×10^6 cells per mL in 200 μL complete media. Compound 1 was dispensed onto the plates and the cells were incubated for the times indicated. For frozen PBMCs, cells were thawed as previously described and plated at a seeding density of 1×10^6 cells per mL in 200 μL on Corning® BioCoat™ T-Cell Activation Anti-Human CD3 96-well plates (Corning Inc., Corning, N.Y.). Compound 1 was dispensed onto the plates and the cells were incubated for the times indicated. […] One hundred microliters of Annexin V/7-AAD buffer was added per well and the cells incubated for 15 minutes before being analyzed using the Attune Flow Cytometer (Life Technologies, Carlsbad, Calif.). For caspase 3/7 activity, the remaining 100 μL was incubated with CellEvent™ Caspase-3/7 Green ReadyProbes® Reagent (1:1000 dilution; Molecular Probes) for 15 minutes before being analyzed using the Attune Flow Cytometer. […]
Compound 1 Induces Apoptosis in Acute Myeloid Leukemia Cell Lines. […] 0.01 μM and 0.1 μM and apoptosis was assessed over time.

SMILES: O=C1CCC(N2Cc3cc(CNC(=O)C(F)(F)c4ccc(Cl)cc4)ccc3C2=O)C(=O)N1 (centres unmarked) [Compound 1, 2-(4-chlorophenyl)-N-((2-(2,6-dioxopiperidin-3-yl)-1-oxoisoindolin-5-yl)methyl)-2,2-difluoroacetamide]
- IC50 [1]: 10 nM
- induction of apoptosis (selected AML cell lines): marked induction of apoptosis
